Measurements: ChEMBL document CHEMBL2169810, “Carbamoylphosphonates control tumor cell proliferation and dissemination by simultaneously inhibiting carbonic anhydrase IX and matrix metalloproteinase-2. Toward nontoxic chemotherapy targeting tumor microenvironment” (J Med Chem, 2012)

Assays:
Carbonic anhydrase 9 = Carbonic anhydrase 9 (Homo sapiens, UniProt Q16790); test: Inhibition of human Carbonic anhydrase 9-mediated CO2 hydration by stopped-flow method
Carbonic anhydrase 2 = Carbonic anhydrase 2 (Homo sapiens, UniProt P00918); test: Inhibition of human Carbonic anhydrase 2-mediated CO2 hydration by stopped-flow method
Carbonic anhydrase 12 = Carbonic anhydrase 12 (Homo sapiens, UniProt O43570); test: Inhibition of human Carbonic anhydrase 12-mediated CO2 hydration by stopped-flow method
Carbonic anhydrase 1 = Carbonic anhydrase 1 (Homo sapiens, UniProt P00915); test: Inhibition of human Carbonic anhydrase 1-mediated CO2 hydration by stopped-flow method
B16-F10 [1] = test: Antimetastatic activity against mouse B16F10 cells xenografted in C57BL mouse assessed as decrease in lung metastasis at 50 mg/kg, po administered QD measured after 21 days; type: functional; design: scale not given: the % may be the effect or the level left
B16-F10 [2] = test: Antimetastatic activity against mouse B16F10 cells xenografted in C57BL mouse assessed as decrease in lung metastasis at 50 mg/kg, ip administered QD measured after 21 days; type: functional; design: scale not given: the % may be the effect or the level left; conditions: route intraperitoneal
[3] = target: T1, 72 kDa type IV collagenase (Homo sapiens, UniProt P08253); test: Inhibition of MMP2
HT-1080 [4] = test: Cytotoxicity against human HT1080 cells assessed as increase in LDH level up to 100 uM after 24 hrs in normoxic condition by spectrophotometric analysis relative to control; type: cell-based; conditions: ht-1080, 24 h
HeLa [5] = test: Cytotoxicity against human HeLa cells assessed as increase in LDH level after 24 hrs in hypoxic condition by spectrophotometric analysis relative to control; type: functional, cell-based
HT-1080 [6] = test: Cytotoxicity against human HT1080 cells assessed as increase in LDH level at 50 uM after 24 hrs in hypoxic condition by spectrophotometric analysis relative to control; type: functional
[7] = target: T1, 72 kDa type IV collagenase; test: Inhibition of human recombinant MMP2 measured every 5 mins for 3 hrs
B16-F10 [8] = test: Antimetastatic activity against mouse B16F10 cells xenografted in C57BL mouse assessed as decrease in lung metastasis at 25 mg/kg, ip administered QD measured after 21 days; type: functional; design: scale not given: the % may be the effect or the level left; conditions: route intraperitoneal
HT-1080 [9] = test: Cytotoxicity against human HT1080 cells assessed as increase in LDH level at 10 uM after 24 hrs in hypoxic condition by spectrophotometric analysis relative to control; type: functional
HT-1080 [10] = test: Cytotoxicity against human HT1080 cells assessed as increase in LDH level after 24 hrs in hypoxic condition by spectrophotometric analysis relative to control; type: functional, cell-based
HeLa [11] = test: Cytotoxicity against human HeLa cells assessed as increase in LDH level up to 100 uM after 24 hrs in normoxic condition by spectrophotometric analysis relative to control; type: cell-based
HT-1080 [12] = test: Cytotoxicity against human HT1080 cells assessed as increase in LDH level at 1 uM after 24 hrs in hypoxic condition by spectrophotometric analysis relative to control; type: functional
B16-F10 [13] = test: Antimetastatic activity against mouse B16F10 cells xenografted in C57BL mouse assessed as decrease in lung metastasis at 12.5 mg/kg, ip administered QD measured after 21 days; type: functional; design: scale not given: the % may be the effect or the level left; conditions: route intraperitoneal
[14] = Volume of distribution at steady state in Sprague-Dawley rat at 33 mg/kg, iv; type: ADME, organism-based; design: dose 33 mg/kg, route intravenous; conditions: in vivo, read-out: Vdss
[15] = Half life in Sprague-Dawley rat at 33 mg/kg, iv; type: ADME, organism-based; design: dose 33 mg/kg, route intravenous; conditions: in vivo
Hydroxyapatite = test: Binding affinity to bone mineral hydroxyapatite at 100 uM after 17 hrs
HeLa [16] = test: Cytotoxicity against human HeLa cells assessed as increase in LDH level at 50 uM after 24 hrs in hypoxic condition by spectrophotometric analysis relative to control; type: functional

Carbonic anhydrase 12, sequence (O43570 whole entry): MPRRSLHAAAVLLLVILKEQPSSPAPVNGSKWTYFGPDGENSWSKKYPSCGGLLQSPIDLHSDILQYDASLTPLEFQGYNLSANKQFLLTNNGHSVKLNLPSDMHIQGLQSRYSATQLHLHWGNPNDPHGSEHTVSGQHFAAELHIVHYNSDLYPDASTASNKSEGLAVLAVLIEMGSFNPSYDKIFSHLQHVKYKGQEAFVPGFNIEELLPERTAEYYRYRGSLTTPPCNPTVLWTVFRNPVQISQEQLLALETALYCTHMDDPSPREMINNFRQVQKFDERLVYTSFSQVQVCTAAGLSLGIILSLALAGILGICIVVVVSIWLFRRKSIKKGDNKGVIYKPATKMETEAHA
Carbonic anhydrase 1, sequence (P00915 whole entry): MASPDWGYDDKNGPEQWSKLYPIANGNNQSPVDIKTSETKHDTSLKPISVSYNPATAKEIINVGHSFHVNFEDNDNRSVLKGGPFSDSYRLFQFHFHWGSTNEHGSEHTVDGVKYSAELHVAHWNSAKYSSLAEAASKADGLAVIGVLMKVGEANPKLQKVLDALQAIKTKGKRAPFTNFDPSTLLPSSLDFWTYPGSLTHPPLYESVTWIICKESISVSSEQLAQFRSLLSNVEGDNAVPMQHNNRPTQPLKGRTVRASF
T1 sequence (P08253 whole entry): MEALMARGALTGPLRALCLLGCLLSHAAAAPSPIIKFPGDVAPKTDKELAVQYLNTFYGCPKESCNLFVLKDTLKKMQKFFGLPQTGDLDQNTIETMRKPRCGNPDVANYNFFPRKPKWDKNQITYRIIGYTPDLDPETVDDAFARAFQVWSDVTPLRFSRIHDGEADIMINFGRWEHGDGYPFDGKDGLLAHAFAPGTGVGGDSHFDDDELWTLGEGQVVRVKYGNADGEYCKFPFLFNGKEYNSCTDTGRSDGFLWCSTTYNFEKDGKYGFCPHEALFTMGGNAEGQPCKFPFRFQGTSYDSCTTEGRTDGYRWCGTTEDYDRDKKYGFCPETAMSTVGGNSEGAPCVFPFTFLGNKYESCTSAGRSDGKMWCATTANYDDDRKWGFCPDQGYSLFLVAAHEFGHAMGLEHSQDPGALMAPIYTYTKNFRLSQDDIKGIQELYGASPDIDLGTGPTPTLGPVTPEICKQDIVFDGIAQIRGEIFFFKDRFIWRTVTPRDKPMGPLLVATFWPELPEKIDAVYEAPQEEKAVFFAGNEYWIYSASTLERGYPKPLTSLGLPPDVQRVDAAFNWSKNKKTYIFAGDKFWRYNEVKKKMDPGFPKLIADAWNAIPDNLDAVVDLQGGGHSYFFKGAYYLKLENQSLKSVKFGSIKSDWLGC

Structure (SMILES) | IC50 (Carbonic anhydrase 9) [µM] | IC50 (Carbonic anhydrase 2) [µM] | IC50 (Carbonic anhydrase 12) [µM] | IC50 (Carbonic anhydrase 1) [µM] | other results
N[C@H]1CCCC[C@@H]1NC(=O)P(=O)(O)O | 7.14 | 8.28 | 8.26 | 8.24 | 
O=C(NCC1CCCCC1)P(=O)(O)O [CYCLOHEXYLMETHYLCARBAMOYLPHOSPHONIC ACID] | 8.59 | 9.23 | 7.44 | 7.36 | 
CCC(CC)NC(=O)P(=O)(O)O | 8.26 | 8.79 | 4.65 | 6.71 | 
O=C(NC1CCCCCCC1)P(=O)(O)O [(CYCLOOCTYLAMINO)CARBONYLPHOSPHONIC ACID] | 9.14 | 7.89 | 7.99 | 8.02 | 
C[C@@H](NC(=O)P(=O)(O)O)C1CCCCC1 | 8.12 | 8.85 | 6.97 | 6.78 | 
O=C(NCCCCNS(=O)(=O)c1ccc(Oc2ccccc2)cc1)P(=O)(O)O | 6.1 | 0.1 | 5.6 | 0.75 | 
O=C(NC1CCCC1)P(=O)(O)O [(CYCLOPENTYLAMINO)CARBONYLPHOSPHONIC ACID] | 8.97 | 7.41 | 7.26 | 8.79 | Activity (B16-F10 [1]): 80%; Activity (B16-F10 [2]): 86%
CC(C)NC(=O)P(=O)(O)O [(ISOPROPYLAMINO)CARBONYLPHOSPHONIC ACID] | 8.3 | 13.9 | 7.27 | 8.81 | 
N[C@@H]1CCCC[C@@H]1NC(=O)P(=O)(O)O | 8.6 | 1.32 | 6 | 1.6 | 
CCOP(=O)(OCC)C(=O)NCCCCNC(=O)P(=O)(OCC)OCC | 9.65 | 9.59 | 2.72 | 9.7 | 
O=C(NCCNC(=O)P(=O)(O)O)c1ccc(Oc2ccccc2)cc1 | 9.9 | 0.61 | 8.6 | 0.62 | IC50 [3]: 20 µM
C[C@H](NC(=O)P(=O)(O)O)C1CCCCC1 | 6.36 | 9.45 | 6.64 | 5.31 | 
O=C(NCCc1ccccc1)P(=O)(O)O [PHENETHYLCARBAMOYLPHOSPHONIC ACID] | 6.08 | 8 | 5.44 | 7.68 | 
O=C(NCCCCNC(=O)P(=O)(O)O)P(=O)(O)O | 9.1 | 8.82 | 6.02 | 9.74 | 
O=C(NCCNS(=O)(=O)c1ccc(Oc2ccccc2)cc1)P(=O)(O)O | 7 | 0.82 | 6.9 | 0.98 | 
O=C(NCCCCCCNS(=O)(=O)c1ccc(Oc2ccccc2)cc1)P(=O)(O)O | 7 | 0.1 | 6.2 | 0.38 | Activity (HT-1080 [4]): Non-toxic; Activity (HeLa [5]): Dose-dependent effect; Activity (B16-F10 [1]): 50%; fold change (FC) (HT-1080 [6]): 1.9; IC50 [7]: 4 µM; Activity (B16-F10 [8]): 90%; fold change (FC) (HT-1080 [9]): 1.3; Activity (HT-1080 [10]): Dose-dependent effect; Activity (HeLa [11]): Non-toxic; fold change (FC) (HT-1080 [12]): 1; Activity (B16-F10 [13]): 82%
O=C(NC1CCCCC1)P(=O)(O)O [(CYCLOHEXYLAMINO)CARBONYLPHOSPHONIC ACID] | 8.89 | 8.81 | 5.59 | 7.89 | 
O=C(NCCCCCNS(=O)(=O)c1ccc(Oc2ccccc2)cc1)P(=O)(O)O | 6.3 | 0.31 | 5.7 | 0.52 | Activity (HT-1080 [4]): Non-toxic; Activity (HeLa [5]): Dose-dependent effect; Activity (B16-F10 [1]): 80%; Vd [14]: 1.65 L/kg; fold change (FC) (HT-1080 [6]): 2.3; half-life [15]: 9 h; IC50 [7]: 4 µM; Activity (B16-F10 [2]): 90%; Activity (B16-F10 [8]): 76%; fold change (FC) (HT-1080 [9]): 1.5; Activity (HT-1080 [10]): Dose-dependent effect; Drug absorption (Hydroxyapatite): 44%; fold change (FC) (HeLa [16]): 1.3; Activity (HeLa [11]): Non-toxic; fold change (FC) (HT-1080 [12]): 1; Activity (B16-F10 [13]): 57%
O=C(NCCN1CCCC1)P(=O)(O)O | 8.8 | 9.66 | 5.43 | 9.43 | 
O=C(NCCCNS(=O)(=O)c1ccc(Oc2ccccc2)cc1)P(=O)(O)O | 6.8 | 0.58 | 6.4 | 0.71 | 
O=C(NCCN1CCCCC1)P(=O)(O)O | 9 | 8.6 | 7.64 | 7.82 | 
